Data set [1] can be described thus: Photocleavage under 505 nm green LED light, determined by HPLC. It is filed as physicochemical. Particulars: free DTAEA in 50% acetonitrile/H2O, 50 mW/cm^2, 1 min. The protocol:
The photocleavage mechanism of coumarin carbamate derivatives was reported as carbocation formation following with the addition of —OH group in aqueous solutions (FIG. 6a).^9 To quantitatively measure the photocleavage rate of free DTAEA, quartz cuvettes containing DTAEA in 50% acetonitrile/H2O was irradiated with 505 nm green LED light. At predetermined time points, the remaining DTAEA and released DEAdcCM were determined by high performance liquid chromatography (HPLC). […] The similar photocleavage process in DTAEA NPs took about 5 minutes for the completely consumption of DTAEA (FIG. 6c), which was slightly slow down compared to free DTAEA in the mixture of acetonitrile and water. […] Based on the photocleavage performance of DTAEA and DTNPs, the irradiation duration was set to be no less than 5 min with 505 nm green LED light at 50 mW/cm^2.

Data set [2] in a line: Systemic toxicity in treated tumor-bearing mice: body weight and H&E histology. Type of data set: in vivo, BALB/c nude mice. Particulars: drug administration period (Day 0 to Day 10), 5 mg/kg I.V. Here is the method: (§1) Generally, WERI-Rb-1 cells were injected slowly into the vitreous cavity at the right eyes of Bulb/c nude mice for the tumor implantation. […] The light irradiation was performed at the right eyes immediately after injection. […] To evaluate the biodistribution, the mice were euthanized after the above treatment, and their eyes (both sides), heart, lung, liver, spleen and kidney were further exteriorized for ex vivo fluorescence imaging. […] Seven days after the intraocular injection of WERI-Rb-1-GFP-luc cells, the luminescence signals from the cells can be determined by in vivo imaging system for in situ monitoring of orthotopic ocular tumors. […] The dosage of drug administration was precisely controlled based on the body weight of mice and set as 5 mg/kg body weight. The I.V. injection of formulations was applied every two days for five times. […] During the treatment, bioluminescence from the tumors was detected for tumor growth monitoring. […] Considering individual differences, tumor growth curves (FIG. 14b) of different groups were obtained by setting the bioluminescence intensity on the day before treatment (Day 0) as the origin and determining the quantitative changes in the subsequent days. […] The histological patterns of tumor-bearing retina and main organs were studied by hematoxylin and eosin (H&E) staining (FIG. 15 and FIG. 16).

The subject of data set [3] is WERI-Rb-1-GFP-luc orthotopic tumor. Description: Therapeutic effect on orthotopic WERI-Rb-1-GFP-luc tumors, bioluminescence. Conditions: Day 25; 5 mg/kg I.V. every two days for five times; no irradiation. Type of data set: in vivo, BALB/c nude mice. The protocol: as §1
The test system of data set [4] is human umbilical vein endothelial cells (HUVEC). The experiment in a line: Light-triggered cellular uptake in HUVEC cells, fluorescence microscopy. It is filed as cell-based. The protocol: We further investigated the cellular uptake of the photo-released DOX by fluorescence microscopy and flow cytometry. In this work, human umbilical vein endothelial cells (HUVEC) and human retinoblastoma cells (WERI-Rb-1) were employed to investigate the cellular uptake. The cells were treated with various formulations, including free DOX, DOX/DTNPs and DOX/DTNPs+light irradiation (hv).

For `CCN(CC)c1ccc2c(c1)OC(=C(C#N)C#N)C=C2COC(=O)NCCN(CCNC(=O)OCC1=CC(=C(C#N)C#N)Oc2cc(N(CC)CC)ccc21)CCNC(=O)OCC1=CC(=C(C#N)C#N)Oc2cc(N(CC)CC)ccc21` [DTAEA, (DEAdcCM)3-TAEA], the DTAEA cleaved entry in data set [1] was “More than 90%”.
Turning to `COc1cccc2c1C(=O)c1c(O)c3c(c(O)c1C2=O)C[C@@](O)(C(=O)CO)C[C@@H]3O[C@H]1C[C@H](N)[C@H](O)[C@H](C)O1` [free DOX, doxorubicin], the body weight decrease result in data set [2] was “about 10%”. Further, the “increase of bioluminescence intensity in eyes, compared to Day 0” value in data set [3] stood at 64.0 folds. Moreover, the “red fluorescence intensity (DOX) in cells” value in data set [4] (HUVEC, no irradiation) is “as high as the irradiated group”. Besides, the “intracellular distribution of DOX fluorescence” value in data set [4] (without irradiation) is “observed in the cell nuclei”.

The values are drawn from patent publication US12419956B2, “Controlled drug release system of photoresponsive nanocarriers, methods of making and using thereof” (THE UNIVERSITY OF HONG KONG, priority 2020, dated 2025).
